Measured values: US11401247B2, “Thiazole-5-carboxylic acid derivative and preparation method and use thereof” (XIANGBEI WELMAN PHARMACEUTICAL CO., LTD, priority 2018, dated 2022)
Like-named read-outs stand apart in the source and are kept apart here.

Columns and labels:
hyperuricemia rats = experiment: pharmacodynamic screening in rat hyperuricemia model (exogenous uric acid administered, uric acid decomposition inhibited); format: in vivo, SD rats; settings: for Serum uric acid level, Value after 3 h of drug administration: 10 mg/kg oral, 3 h after first administration, model group 174.4 ± 39.9, blank 53.9 ± 12.8; for uric acid-lowering effect (in words): 3 h after drug administration, febuxostat and ethyl ester 14 mg/kg oral; for uric acid-lowering effect (in words) / p, uric acid level 3 h after drug administration compared with the blank group: F compounds 10 mg/kg; for p, uric acid level 3 h after drug administration compared with the blank group: febuxostat 14 mg/kg oral
ICR mice = settings: for Autopsy results of survival animals: 3000 mg/kg ig; for Abnormal reactions within 12 hours from ig administration: F compounds 3000 mg/kg; for Number of dead animals: ig 3000 mg/kg, 10 mice; for death, preliminary experiments / toxic reactions, preliminary experiments: intragastric 1600 mg/kg
in vivo = settings: mouse, po
[1] = formal test, all dose groups, febuxostat high-dose group
[2] = formal test, febuxostat high-dose group

| Compound | Serum uric acid level, Value after 3 h of drug administration (hyperuricemia rats) | Autopsy results of survival animals (ICR mice; formal test) | animal deaths within 24 hours from the administration (ICR mice; [1]) | Abnormal reactions within 12 hours from ig administration (ICR mice; [2]) | Number of dead animals (ICR mice) | death, preliminary experiments (ICR mice; mice) | toxic reactions, preliminary experiments (ICR mice; mice) | LD50 at 14 days (in vivo) [mg/kg] | LD50 at 14 days (in vivo; 3000 mg/kg) [mg/kg] | uric acid-lowering effect (in words) (hyperuricemia rats) | p, uric acid level 3 h after drug administration compared with the blank group (hyperuricemia rats) | animal deaths within 24 hours from the administration (ICR mice; mouse, in vivo) | LD50/Maximum dose (ICR mice; ig once, mice, 14 days observation, Bliss method, febuxostat: LD50, F compounds: maximum administration dose, no deaths) [mg/kg] |
| --- | --- | --- | --- | --- | --- | --- | --- | --- | --- | --- | --- | --- | --- |
| Cc1nc(-c2ccc(OCC(C)C)c(C#N)c2)sc1C(=O)OCCO [Compound F-1A] | 71.0 ± 24.4^a3b3c1 μmol/L | No obvious abnormalities were observed in the organs | no animal deaths were observed | no abnormalities were observed | 0 | no animal died | no obvious toxicity symptom was observed | 3000 | ≥ 3000 |  |  |  |  |
| Cc1nc(-c2ccc(OCC(C)C)c(C#N)c2)sc1C(=O)OCC(O)CO (stereo not drawn) [Compound F-1B] | 67.5 ± 19.4^a3b3 μmol/L | No obvious abnormalities were observed in the organs |  | no abnormalities were observed | 0 |  | no obvious toxicity symptom was observed | 3000 | ≥ 3000 | very obvious uric acid-lowering effects | no significant difference | no animal deaths were observed |  |
| Cc1nc(-c2ccc(OCC(C)C)c(C#N)c2)sc1C(=O)NCC(=O)O [Compound F-2A] | 78.3 ± 25.1^a3b3c2 μmol/L | No obvious abnormalities were observed in the organs | no animal deaths were observed | no abnormalities were observed | 0 | no animal died | no obvious toxicity symptom was observed | 3000 | ≥ 3000 |  | < 0.01 |  |  |
| Cc1nc(-c2ccc(OCC(C)C)c(C#N)c2)sc1C(=O)NC(C)C(=O)O (stereo not drawn) [Compound F-2B] | 70.3 ± 16.4^a3b3c1 μmol/L | No obvious abnormalities were observed in the organs | no animal deaths were observed | no abnormalities were observed | 0 | no animal died | no obvious toxicity symptom was observed |  |  |  |  |  | 3000 |
| Cc1nc(-c2ccc(OCC(C)C)c(C#N)c2)sc1C(=O)N1CCC[C@H]1C(=O)O [Compound F-2D] | 69.1 ± 23.4^a3b3c1 μmol/L | No obvious abnormalities were observed in the organs | no animal deaths were observed | no abnormalities were observed | 0 | no animal died | no obvious toxicity symptom was observed | 3000 | ≥ 3000 |  |  |  |  |
| Cc1nc(-c2ccc(OCC(C)C)c(C#N)c2)sc1C(=O)OCCCN(C)CCCO [Compound F-3B] | 66.3 ± 17.1^a3b3 μmol/L | No obvious abnormalities were observed in the organs | no animal deaths were observed | no abnormalities were observed | 0 | no animal died | no obvious toxicity symptom was observed | 3000 | ≥ 3000 | very obvious uric acid-lowering effects | no significant difference |  |  |
